Several values for one entry are separate records, joined by “and”; a condition that tells them apart may be missing. Equal entries are not always repeated.
Experiments:
Format in all cases: in vivo
[1] = tested on: powdery mildew (Erysiphe necator); assay: Vineyard trial, MDJ on cabernet sauvignon grapes, powdery mildew on leaf and fruit samples under the microscope; conditions: MDJ approx. 5 mM, 50 gallons per acre, four applications; grape leaf and fruit samples
Method: Methyl dihydrojasmonate (MDJ) was applied to fields of grape to investigate the efficacy of MDJ in preventing bunch rot on (Botrytis cinerea) and powdery mildew (Erysiphe necator) on grapes. A composition comprising 22.6% w/v MDJ, 49.8% v/v TWEEN-20, and water was diluted at a rate of 32 oz. (1 liter) per 50 gallons of water (approximately a 5 mM solution of MDJ). The composition was then applied (at a rate of 50 gallons per acre) to three acres (1245 vines/acre) of a cabernet sauvignon variety grown in Napa Valley, CA. There was a total of four applications between June and September using a ground spray rig. Several leaf and fruit samples were collected to access the presence of powdery mildew under the microscope and compared to leaf and fruit of plants treated with the grower standard.

[2] = tested on: bunch rot (Botrytis cinerea); assay: Vineyard trial, MDJ on cabernet sauvignon grapes, laccase analysed as measure of Botrytis prevalence; conditions: MDJ approx. 5 mM, 50 gallons per acre, four applications, control = grower standard
Method: Methyl dihydrojasmonate (MDJ) was applied to fields of grape to investigate the efficacy of MDJ in preventing bunch rot on (Botrytis cinerea) and powdery mildew (Erysiphe necator) on grapes. A composition comprising 22.6% w/v MDJ, 49.8% v/v TWEEN-20, and water was diluted at a rate of 32 oz. (1 liter) per 50 gallons of water (approximately a 5 mM solution of MDJ). The composition was then applied (at a rate of 50 gallons per acre) to three acres (1245 vines/acre) of a cabernet sauvignon variety grown in Napa Valley, CA. There was a total of four applications between June and September using a ground spray rig. To investigate the prevalence of Botrytis, the enzyme laccase was analyzed. Laccase can negatively impact wine by causing premature browning of bottled white wine and color degradation in red wine. The MDJ treated group had 2 units/ml, whereas the control (grower standard) had 5 units/ml. This level in the control means that Botrytis problems can be expected during the wine making process, whereas in the MDJ treated group, the value of 2 units/ml means there will be no issues with Botrytis during the wine making process.

[3] = tested on: Botrytis; assay: Field trial, MDJ foliar spray on 'Maverick' strawberries, Botrytis incidence on berries; conditions: MDJ approx. 5 mM, 50 gallons per acre, two foliar sprays
Method: Methyl dihydrojasmonate (MDJ) was applied to fields of strawberry to investigate the efficacy of MDJ in preventing Botriytis disease. A composition comprising 22.6% w/v MDJ, 49.8% v/v TWEEN-20, and water was diluted at a rate of 32 oz. (1 liter) per 50 gallons of water (approximately a 5 mM solution of MDJ). The composition was then applied (at a rate of 50 gallons per acre) to an acre of ‘Maverick’ strawberries grown in Watsonville, CA on Aug. 18, 2021 and again on Sep. 2, 2021 using an electrostatic backpack sprayer (foliar spray). Plants were harvested in October 2021. MDJ plants were compared to strawberries treated with the grower standard; a rotation of Pristine® (pyraclostrobin and boscalid), Merivon® (pyraclostrobin), Luna® (fluopyram and trifloxystrobin), and Elevate® (fenhexamid). […] Out of four replicates of 10 plants each, the average incidence of Botrytis on berries in the MDJ treated acre was 11%, compared to 18.75% in the grower standard population.

[4] = tested on: Botrytis cinerea; assay: Hemp inoculated with Botrytis cinerea, visual disease score 0-5 at harvest; conditions: 8 replicates
Method: Culturing Botrytis cinerea: A Botrytis cinerea isolate was cultured onto potato-dextrose agar (PDA). It was resisolated by taking a mycelial plug from the edge of actively growing cultures every 2-3 weeks to maintain active growing culture. It was maintained at 20° C. under continuous light (˜58 pEin m^−2 s^−1).
Inoculating hemp: The inoculum was prepared by flooding a full grown B. cinerea PDA plate with DI water and 0.1% Tween-20 to create a suspension of fungal spores. Spore count was quantified.
In the first inoculation, a suspension of 1.2×10^4 spores of B. cinerea/mL was created, and 1.5 mL was applied to the top cola/inflorescence of each plant. Hemp was inoculated in the first week of flowering, with application to the underdeveloped inflorescences.
In the second inoculation, a suspension of 1.5×10^5 spores of B. cinerea/mL was created, and sucrose was added to 1% concentration, and the plants were sprayed until drip using a backpack sprayer.
Inoculated plants were placed in a growth chamber or controlled growth environment with a constant temperature of 20-25° C. and 50-70% relative humidity.
Treatment Conditions: Treatments comprising 1 mM or 5 mM jasmonate (MDJ) were applied alone or alongside a biological (Continuum™). These treatment conditions were compared to control (no MDJ, no biological). Each treatment group had 8 replicates. […]

For `CCCCCC1C(=O)CCC1CC(=O)OC` (stereo not drawn) [MDJ, methyl dihydrojasmonate], the “Control of powdery mildew compared to grower standard” value [1] was “the same, or better, control of powdery mildew as the grower standard”, the Laccase [2] was 2 units/ml and the “Average % incidence of Botrytis on berries” value ([3]; average of four replicates of 10 plants each) was 11%. The “% incidence of Botrytis” value ([3]; single replicates 1-4, 10 plants each, strawberry berries) was 10% and 16% and 7% and 11%, the “Average Disease Score” value ([4]; condition B: 1 mM MDJ foliar spray) was 2.625 and the “Average Disease Score” value ([4]; condition C: 5 mM MDJ foliar spray) was 2.250.
